Results: patent US20100099640A1, “TISSUE DEGENERATION PROTECTION” (priority 2007, published 2010)

What was measured:
3T3-L1 adipocytes = test: Triglyceride (Oil red O) accumulation during differentiation of 3T3-L1 adipocytes; assay type: cell-based, mouse; details: for triglyceride accumulation in adipocytes: 50-micromolar (lowest concentration), added during the 7-days differentiation process; for lipid deposition (triglyceride accumulation) in adipocytes: 200-micromolar (4x higher concentration), added during differentiation, steviol dissolved with DMSO
Protocol: 3T3-L1 mouse preadipocytes were purchased from the American Type Culture Collection (ATCC). They are cultivated in DHG medium (Dulbecco's modified Eagle's medium+High Glucose 4.5 g/l, GibcoBRL) supplemented with 10% FCS (foetal calf serum, GibcoBRL) and incubated a 37 C+5% CO2 incubator in a humidified atmosphere. For pre-adipocyte differentiation, 3T3-L1 cells were seeded at 50% confluence 3 days before the beginning of the differentiation programme. Confluent cell monolayers (day 0) are switched for 48 h to media containing the adipogenic cocktail: “DHG-L1” medium (DHG that contains 1.5 g/l NaHCO3) supplemented with 10% FCS, 5 μg/ml insulin, 300 μM dibutyryl-cyclicAMP (dbcAMP) and 1 μM dexamethasone. The cells were then refeeded every other day with DHG-L1 containing 10% FCS and 5 μg/ml insulin. At the end, 80-90% of cells were differentiated. […]
To characterize the state of (de)differentiation obtained in the presence of the molecules of interest, triglycerides present in the cells were stained with Oil red O (a dye of the neutral lipids). The absorbance of cell monolayers at 490 nm was measured in a spectrophotometer.

[1] = system: atherosclerotic plaques of DKO mice; test: Atherosclerosis: morphometric and immunohistochemical analysis of aortic root cross sections of DKO mice; assay type: in vivo, mouse; details: 12 weeks
Protocol: Homozygous LDL-receptor-knockout mice (LDLR^(−/−)), heterozygous ob/+, and C57BL6 mice were purchased from Jackson Laboratory, Bar Harbor, Me. LDLR^(−/−) mice were backcrossed into a C57BL6 background to the 10th generation. To obtain DKO mice with combined leptin deficiency (ob/ob) and LDL-receptor deficiency, LDLR^(−/−) and ob/+ mice were crossed. All offspring were genotyped by polymerase chain reaction (PCR) techniques. All mice were housed at 22° C. on a fixed 12/12-hour light/dark cycle. Experimental procedures in animals were performed in accordance with protocols approved by the Institutional Animal Care and Research Advisory Committee. All mice were fed standard chow containing 4% fat (Pavan Service). Food intake was ≈5.7 g/d. Mice (about 50 g) were treated with stevioside (N=14; 10 mg/kg), steviol (N=9; 5 mg/kg) or placebo (N=17) for 12 weeks between 12 and 24 weeks of age. Stevioside (Molecular weight: 804) was dissolved in water (1 mg/ml) and 500 μl of the solution was administered orally. Steviol (Molecular weight: 318) was dissolved in water containing 6% NaHCO3 (1 mg/ml) and 250 μl of the solution was administered orally.
The extent of atherosclerosis was determined by analysis of cross sections from the aortic root. Approximately ten 7-μm frozen sections per staining per animal were used for morphometric and immunohistochemical analysis. Total plaque areas were measured on hematoxylin and eosin stained sections. Lipids were stained with oil-red O, and macrophage areas were stained with an antibody against mouse Mac-3 antigen (Pharmingen), and oxidized LDL with the monoclonal antibody 4E6. Blinded analysis of positive immunostained sections was performed with the Quantimet600 image analyzer (Leica).

[2] = cited from earlier work
[3] = system: mouse pancreatic islets, β-cell line INS-1; details: direct action on β-cells; cited from earlier work
[4] = system: everted gastrointestinal sacs of rats and Caco-2 cell layers; details: free steviol formed in the colon; cited from earlier work
[5] = steviol 5 mg/kg vs stevioside 10 mg/kg orally
[6] = stevioside 10 mg/kg or steviol 5 mg/kg orally

Molecule | triglyceride accumulation in adipocytes (3T3-L1 adipocytes) | lipid deposition (triglyceride accumulation) in adipocytes (3T3-L1 adipocytes) | SMC content of plaques, compared to stevioside [1, 5] | plaque lipids, compared to stevioside [1, 5] | lipid deposition in plaques [1, 6] | macrophage deposition in plaques [1, 6] | oxLDL deposition in plaques [1, 6] | plaque volume [1, 6] | smooth muscle cell (SMC)-to-macrophage ratio (proxy for plaque stability) [1, 6] | transformation by human microsomes relative to rat microsomes ([2]; human vs rat liver microsomes) | transformation of steviol by human microsomes ([2]; in vitro incubation with human liver microsomes) | insulin secretion [3] | absorption of free steviol [4]
C=C1C[C@@]23CC[C@H]4[C@@](C)(CCC[C@@]4(C)C(=O)OC4OC(C(=O)O)C(O)C(O)C4O)[C@@H]2CC[C@]1(O)C3 (stereo partly drawn) [steviol glucuronide, steviol-19-O-β-D-glucuronide] | inhibited significantly |  |  |  |  |  |  |  |  |  |  |  | 
C=C1C[C@@]23CC[C@H]4[C@@](C)(CCC[C@@]4(C)C(=O)O)[C@@H]2CC[C@]1(O)C3 [steviol, Kaur-16-en-18-oic acid, 13-hydroxy-, (4α)-] | did not significantly reduce | did not have an effect | increased somewhat more | decreased somewhat more | reducing | reducing | reducing | lowered | increased | about 4 times lower | very low | stimulation of insulin secretion | easily absorbed
Kaur-16-en-18-oic acid, 13-[(O-b-D-glucopyranosyl-(1→2)-O-[b-D-glucopyranosyl-(1→3)]-b-D-glucopyranosyl)oxy]-, b-D-glucopyranosyl ester, (4a)- [rebaudioside] | did not significantly reduce | inhibited |  |  |  |  |  |  |  |  |  |  | 
